# Values quoted from earlier work as cited in patent US12194065B2, “Methods and compositions to enhance metabolic detoxification systems” (Nature's Sunshine Products, Inc., priority 2017, dated 2025).
# How the values were obtained:
# [1] = acute supplementation of 6 g, over 120 minutes, healthy individuals with normal plasma ADMA
# eNOS = eNOS (Homo sapiens, UniProt P29474)
# [2] = once produced through NOS
# eNOS, sequence (P29474 2-1203): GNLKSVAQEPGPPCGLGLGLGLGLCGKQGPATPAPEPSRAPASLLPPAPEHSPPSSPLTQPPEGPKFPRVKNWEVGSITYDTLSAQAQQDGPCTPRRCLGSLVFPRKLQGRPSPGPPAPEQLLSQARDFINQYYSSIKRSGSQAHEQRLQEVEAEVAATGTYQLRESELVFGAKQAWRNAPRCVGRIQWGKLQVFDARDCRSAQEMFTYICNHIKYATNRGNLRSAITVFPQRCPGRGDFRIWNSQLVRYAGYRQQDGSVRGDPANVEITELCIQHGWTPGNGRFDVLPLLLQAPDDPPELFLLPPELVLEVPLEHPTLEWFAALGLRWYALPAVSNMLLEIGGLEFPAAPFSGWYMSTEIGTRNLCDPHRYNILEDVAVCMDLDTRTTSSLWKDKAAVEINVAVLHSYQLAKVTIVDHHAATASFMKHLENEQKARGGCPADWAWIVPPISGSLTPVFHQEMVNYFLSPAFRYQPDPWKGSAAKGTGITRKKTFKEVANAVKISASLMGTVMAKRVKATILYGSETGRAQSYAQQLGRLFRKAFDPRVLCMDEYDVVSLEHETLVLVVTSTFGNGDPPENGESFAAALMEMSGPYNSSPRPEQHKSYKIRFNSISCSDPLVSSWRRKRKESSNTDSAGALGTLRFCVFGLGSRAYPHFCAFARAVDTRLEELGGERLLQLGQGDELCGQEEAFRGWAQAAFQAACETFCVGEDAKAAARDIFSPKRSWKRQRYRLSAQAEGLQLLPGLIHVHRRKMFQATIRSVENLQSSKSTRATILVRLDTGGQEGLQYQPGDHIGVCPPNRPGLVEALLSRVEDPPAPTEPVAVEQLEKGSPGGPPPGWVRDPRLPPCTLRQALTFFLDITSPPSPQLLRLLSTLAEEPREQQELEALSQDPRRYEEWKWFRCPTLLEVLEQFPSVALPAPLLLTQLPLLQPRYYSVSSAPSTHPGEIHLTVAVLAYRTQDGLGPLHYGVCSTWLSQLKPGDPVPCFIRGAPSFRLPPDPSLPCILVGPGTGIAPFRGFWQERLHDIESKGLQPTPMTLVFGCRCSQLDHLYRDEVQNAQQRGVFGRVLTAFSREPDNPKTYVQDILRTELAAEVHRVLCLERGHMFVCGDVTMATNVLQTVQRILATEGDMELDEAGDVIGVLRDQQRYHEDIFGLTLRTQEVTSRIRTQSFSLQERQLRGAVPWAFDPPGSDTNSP
Compound,plasma concentration of NOx [1],concentration saturating eNOS (eNOS),half-life [2]
N=C(N)NCCC[C@H](N)C(=O)O [L-arginine],does not increase,approximately 3 μmol arginine/L,–
"[N]=O [NO, Nitric oxide]",–,–,approximately 1 second
